According to ChEMBL document CHEMBL2074328, “Up-regulation of transporters of the MRP family by drugs and toxins” (Toxicol Lett, 2001):

Key:
[1] = target: Multidrug resistance associated protein (Homo sapiens) (UniProt Q96QA9); assay: (§1) TP_TRANSPORTER: RT-PCR in HepG2 cells; type: functional, cell-based
[2] = target: T1, ATP-binding cassette sub-family C member 2 (Rattus norvegicus, UniProt Q63120); assay: TP_TRANSPORTER: Northern blot from primary hepatocytes; type: functional, cell-based, Hepatocyte
[3] = target: T1, ATP-binding cassette sub-family C member 2; assay: TP_TRANSPORTER: Western blot, primary hepatocytes; type: functional, cell-based, Hepatocyte
[4] = target: ATP-binding cassette sub-family C member 5 (Homo sapiens, UniProt O15440); assay: as §1; type: functional, cell-based
[5] = target: T2, ATP-binding cassette sub-family C member 2 (Homo sapiens, UniProt Q92887); assay: TP_TRANSPORTER: Northern blot from HepG2 cells; type: functional, cell-based
[6] = target: T2, ATP-binding cassette sub-family C member 2; assay: as §1; type: functional, cell-based
[7] = target: T3, Multidrug resistance-associated protein 1 (Homo sapiens, UniProt P33527); assay: TP_TRANSPORTER: Western blot, MCF-7 cells; type: functional, cell-based; details: mcf7
[8] = target: T3, Multidrug resistance-associated protein 1; assay: TP_TRANSPORTER: Northern blot from MCF-7 cells; type: functional, cell-based; details: mcf7

T3 sequence (P33527 whole entry): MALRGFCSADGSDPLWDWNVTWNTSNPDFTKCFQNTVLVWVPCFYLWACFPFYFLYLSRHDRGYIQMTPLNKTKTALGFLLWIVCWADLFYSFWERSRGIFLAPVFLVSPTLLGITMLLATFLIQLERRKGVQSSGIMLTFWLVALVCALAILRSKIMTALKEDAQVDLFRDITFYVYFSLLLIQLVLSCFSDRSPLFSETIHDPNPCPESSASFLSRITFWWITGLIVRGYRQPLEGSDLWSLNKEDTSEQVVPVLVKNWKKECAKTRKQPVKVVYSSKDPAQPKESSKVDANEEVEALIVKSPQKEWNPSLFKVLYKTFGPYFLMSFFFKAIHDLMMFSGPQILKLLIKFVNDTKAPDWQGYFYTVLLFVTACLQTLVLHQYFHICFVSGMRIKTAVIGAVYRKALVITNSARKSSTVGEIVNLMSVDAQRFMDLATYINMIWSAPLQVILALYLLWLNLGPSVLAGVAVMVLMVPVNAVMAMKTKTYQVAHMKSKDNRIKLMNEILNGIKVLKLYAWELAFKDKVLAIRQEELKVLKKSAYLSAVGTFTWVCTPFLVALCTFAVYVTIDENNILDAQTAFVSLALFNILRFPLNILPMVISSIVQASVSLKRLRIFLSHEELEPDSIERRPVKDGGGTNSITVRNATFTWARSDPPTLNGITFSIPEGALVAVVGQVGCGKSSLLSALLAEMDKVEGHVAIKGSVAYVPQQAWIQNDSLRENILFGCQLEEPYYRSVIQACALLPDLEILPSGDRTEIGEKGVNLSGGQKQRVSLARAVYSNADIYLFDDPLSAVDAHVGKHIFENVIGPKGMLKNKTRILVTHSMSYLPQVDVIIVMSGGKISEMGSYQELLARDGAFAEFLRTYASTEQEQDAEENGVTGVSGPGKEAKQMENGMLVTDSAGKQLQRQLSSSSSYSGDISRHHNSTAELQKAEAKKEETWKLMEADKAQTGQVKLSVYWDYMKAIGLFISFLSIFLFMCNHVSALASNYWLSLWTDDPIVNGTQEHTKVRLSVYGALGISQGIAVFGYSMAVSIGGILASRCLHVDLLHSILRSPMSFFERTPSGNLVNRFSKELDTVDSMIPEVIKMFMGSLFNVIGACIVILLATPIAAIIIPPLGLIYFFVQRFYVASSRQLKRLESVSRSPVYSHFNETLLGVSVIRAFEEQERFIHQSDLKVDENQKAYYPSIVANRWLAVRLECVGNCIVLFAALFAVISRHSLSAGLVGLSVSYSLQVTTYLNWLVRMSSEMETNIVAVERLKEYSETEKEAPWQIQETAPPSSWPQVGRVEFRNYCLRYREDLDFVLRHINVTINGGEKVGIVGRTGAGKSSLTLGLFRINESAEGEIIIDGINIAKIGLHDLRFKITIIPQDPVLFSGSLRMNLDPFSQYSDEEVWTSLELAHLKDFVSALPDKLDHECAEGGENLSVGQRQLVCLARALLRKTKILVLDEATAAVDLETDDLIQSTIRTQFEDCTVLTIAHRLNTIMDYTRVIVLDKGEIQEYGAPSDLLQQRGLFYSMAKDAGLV
Sequence of ATP-binding cassette sub-family C member 5 (O15440 whole entry): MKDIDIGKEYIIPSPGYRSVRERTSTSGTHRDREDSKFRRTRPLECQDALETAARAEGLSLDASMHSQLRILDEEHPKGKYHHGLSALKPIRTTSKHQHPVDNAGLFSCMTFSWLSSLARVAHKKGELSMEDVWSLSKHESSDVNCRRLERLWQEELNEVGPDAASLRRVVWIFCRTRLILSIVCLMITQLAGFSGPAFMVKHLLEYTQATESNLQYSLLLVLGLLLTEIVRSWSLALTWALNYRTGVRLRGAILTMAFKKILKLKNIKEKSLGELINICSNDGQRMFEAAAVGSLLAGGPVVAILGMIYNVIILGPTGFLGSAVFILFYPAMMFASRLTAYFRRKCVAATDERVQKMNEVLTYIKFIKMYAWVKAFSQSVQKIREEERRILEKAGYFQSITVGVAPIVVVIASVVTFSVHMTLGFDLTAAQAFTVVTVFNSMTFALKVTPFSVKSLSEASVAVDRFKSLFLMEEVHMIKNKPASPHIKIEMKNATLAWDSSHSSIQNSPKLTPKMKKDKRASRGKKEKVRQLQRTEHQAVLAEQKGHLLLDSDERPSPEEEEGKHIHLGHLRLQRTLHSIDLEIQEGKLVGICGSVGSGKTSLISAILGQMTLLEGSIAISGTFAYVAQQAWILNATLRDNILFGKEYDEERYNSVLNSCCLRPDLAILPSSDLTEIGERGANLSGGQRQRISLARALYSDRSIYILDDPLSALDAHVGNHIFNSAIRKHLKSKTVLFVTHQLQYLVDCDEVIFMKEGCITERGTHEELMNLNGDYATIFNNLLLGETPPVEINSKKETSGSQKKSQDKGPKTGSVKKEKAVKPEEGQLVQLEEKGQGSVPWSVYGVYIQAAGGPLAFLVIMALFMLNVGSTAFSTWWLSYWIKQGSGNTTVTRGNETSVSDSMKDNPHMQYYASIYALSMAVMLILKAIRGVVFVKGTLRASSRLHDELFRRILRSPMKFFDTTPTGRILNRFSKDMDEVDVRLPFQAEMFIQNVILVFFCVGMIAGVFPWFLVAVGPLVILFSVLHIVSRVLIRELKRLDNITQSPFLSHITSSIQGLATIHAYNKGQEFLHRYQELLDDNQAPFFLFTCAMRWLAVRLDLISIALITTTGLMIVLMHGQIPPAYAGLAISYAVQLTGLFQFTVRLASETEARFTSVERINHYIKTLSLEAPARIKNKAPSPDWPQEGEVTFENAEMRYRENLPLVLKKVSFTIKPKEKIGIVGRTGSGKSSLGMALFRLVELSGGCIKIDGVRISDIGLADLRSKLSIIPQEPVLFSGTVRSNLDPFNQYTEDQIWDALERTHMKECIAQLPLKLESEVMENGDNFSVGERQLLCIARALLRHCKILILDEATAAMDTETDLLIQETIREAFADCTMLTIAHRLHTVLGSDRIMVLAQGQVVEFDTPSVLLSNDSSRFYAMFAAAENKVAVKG
T2 sequence (Q92887 whole entry): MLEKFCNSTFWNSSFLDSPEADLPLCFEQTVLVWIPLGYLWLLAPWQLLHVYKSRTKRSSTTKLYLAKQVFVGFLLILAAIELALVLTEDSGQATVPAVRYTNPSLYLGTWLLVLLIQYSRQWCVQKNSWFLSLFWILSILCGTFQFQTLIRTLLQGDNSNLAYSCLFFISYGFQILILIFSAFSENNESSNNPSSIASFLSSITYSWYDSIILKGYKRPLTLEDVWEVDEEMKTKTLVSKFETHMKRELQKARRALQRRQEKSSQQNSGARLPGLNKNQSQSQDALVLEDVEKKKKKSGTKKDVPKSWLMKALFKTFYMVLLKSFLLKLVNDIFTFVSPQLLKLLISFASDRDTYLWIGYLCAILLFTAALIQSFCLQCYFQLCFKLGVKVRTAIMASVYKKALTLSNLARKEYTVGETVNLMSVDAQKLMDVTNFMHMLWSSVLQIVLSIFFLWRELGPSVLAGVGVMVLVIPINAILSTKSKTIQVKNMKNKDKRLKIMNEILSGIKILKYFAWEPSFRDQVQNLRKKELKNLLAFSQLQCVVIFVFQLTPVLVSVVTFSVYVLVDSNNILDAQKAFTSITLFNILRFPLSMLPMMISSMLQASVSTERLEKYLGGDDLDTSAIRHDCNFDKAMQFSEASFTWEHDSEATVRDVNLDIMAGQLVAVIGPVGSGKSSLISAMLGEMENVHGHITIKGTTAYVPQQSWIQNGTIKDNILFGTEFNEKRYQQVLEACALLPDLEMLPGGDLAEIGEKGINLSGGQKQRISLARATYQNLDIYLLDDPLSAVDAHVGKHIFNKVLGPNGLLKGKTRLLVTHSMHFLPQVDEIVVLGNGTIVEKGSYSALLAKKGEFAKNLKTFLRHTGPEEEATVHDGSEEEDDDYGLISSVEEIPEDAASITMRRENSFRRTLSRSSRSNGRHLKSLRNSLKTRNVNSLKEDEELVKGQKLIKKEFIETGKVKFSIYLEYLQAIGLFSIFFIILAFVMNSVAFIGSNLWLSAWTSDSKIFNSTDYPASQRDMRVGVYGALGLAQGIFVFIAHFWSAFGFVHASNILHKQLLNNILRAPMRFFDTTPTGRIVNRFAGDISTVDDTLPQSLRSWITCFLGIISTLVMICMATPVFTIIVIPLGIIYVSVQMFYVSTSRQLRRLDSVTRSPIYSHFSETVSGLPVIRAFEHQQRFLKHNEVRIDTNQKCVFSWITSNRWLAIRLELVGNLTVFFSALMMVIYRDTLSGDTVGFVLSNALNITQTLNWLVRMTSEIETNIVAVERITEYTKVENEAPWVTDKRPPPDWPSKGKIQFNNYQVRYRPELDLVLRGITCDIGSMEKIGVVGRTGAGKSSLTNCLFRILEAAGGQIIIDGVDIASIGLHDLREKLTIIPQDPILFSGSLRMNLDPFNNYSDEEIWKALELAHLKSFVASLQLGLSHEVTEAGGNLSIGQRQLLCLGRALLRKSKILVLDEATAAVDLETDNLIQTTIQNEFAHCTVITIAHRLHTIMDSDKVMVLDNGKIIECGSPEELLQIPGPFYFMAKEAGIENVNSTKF

Row | Compound | Activity [2] | Activity [3] | Activity [4] | further results
1 | CC(=O)Nc1ccc2c(c1)Cc1ccccc1-2 [2-ACETYLAMINOFLUORENE] | inducer [+] | inducer [+] | inducer [+] | Activity [1]: inducer [+]; Activity [5]: inducer [+]
2 | CISPLATIN [listing 1 of 2 here] | – | – | – | Activity [1]: inducer [+]
3 | CCC1(c2ccccc2)C(=O)NC(=O)NC1=O [PHENOBARBITAL] | – | – | – | Activity [5]: inducer [+]
4 | CO[C@H]1/C=C/O[C@@]2(C)Oc3c(C)c(O)c4c(O)c(c(/C=N/N5CCN(C)CC5)c(O)c4c3C2=O)NC(=O)/C(C)=C\C=C\[C@H](C)[C@H](O)[C@@H](C)[C@@H](O)[C@@H](C)[C@H](OC(C)=O)[C@@H]1C [RIFAMPIN] | – | – | inducer [+] | –
5 | CISPLATIN [listing 2 of 2 here] | inducer [+] | inducer [+] | inducer [+] | Activity [6]: inducer [+]
6 | CC[C@]1(O)C[C@@H]2CN(CCc3c([nH]c4ccccc34)[C@@](C(=O)OC)(c3cc4c(cc3OC)N(C)[C@H]3[C@@](O)(C(=O)OC)[C@H](OC(C)=O)[C@]5(CC)C=CCN6CC[C@]43[C@@H]65)C2)C1 [VINBLASTINE] | inducer [+] | inducer [+] | – | Activity [7]: inducer [+]; Activity [8]: inducer [+]
7 | CC(C)(C)c1cc(O)ccc1O [E319] | – | – | – | Activity [7]: inducer [+]; Activity [8]: inducer [+]
8 | C[C@@H]1C[C@H]2[C@@H]3CCC4=CC(=O)C=C[C@]4(C)[C@@]3(F)[C@@H](O)C[C@]2(C)[C@@]1(O)C(=O)CO [DEXAMETHASONE] | inducer [+] | inducer [+] | – | –
